Where two headings read alike, the source gives them in different places.
Tests used:
MCC26 cells (VN-MCC) = assay: qHTS cell viability (CellTiter-Glo, 72 h; primary and follow-up small molecule screen); type: cell-based, human
NIH-3T3 cells = assay: qHTS cell viability (CellTiter-Glo, 72 h; primary screen), control cell line; type: cell-based, mouse
HEK293T cells = assay: as above; type: cell-based, human
[1] = test system: MCC cell lines (WAGA, MKL-1, MKL-2, MCC13, MCC26, UISO); assay: qHTS cell viability, all six MCC cell lines as a group (mean AUC, MCC.avg); type: cell-based, human
CRL-7250 cells = assay: qHTS cell viability (CellTiter-Glo, 72 h; primary screen), control cell line; type: cell-based
HACAT cells = assay: as above; type: cell-based, human
MKL-1 cells (VP-MCC) = assay: qHTS cell viability (CellTiter-Glo, 72 h; primary and follow-up small molecule screen); type: cell-based, human
MKL-2 cells (VP-MCC) = assay: as above; type: cell-based, human
[2] = test system: VN-MCC cell lines (MCC13, MCC26, UISO); assay: qHTS cell viability, VN-MCC cell lines as a group (mean AUC, VN.MCC.avg); type: cell-based, human
MCC13 cells (VN-MCC) = assay: qHTS cell viability (CellTiter-Glo, 72 h; primary and follow-up small molecule screen); type: cell-based, human
UISO cells (VN-MCC) = assay: as above; type: cell-based, human
[3] = test system: VP-MCC cell lines (WAGA, MKL-1, MKL-2); assay: qHTS cell viability, VP-MCC cell lines as a group (mean AUC, VP.MCC.avg); type: cell-based, human
[4] = test system: six MCC cell lines and four control cell lines; assay: qHTS cell viability, all 10 cell lines screened; type: cell-based
[5] = test system: control cell lines (HACAT, HEK293T, CRL-7250, NIH-3T3); assay: qHTS cell viability, control cell lines as a group (mean AUC, Control.avg); type: cell-based
WAGA cells (VP-MCC) = assay: qHTS cell viability (CellTiter-Glo, 72 h; primary and follow-up small molecule screen); type: cell-based, human
[6] = NPC library, 8-point DRC, area under dose-response curve
[7] = NPC library, 8-point DRC, control cell line
[8] = NPC library, mean AUC of six MCC cell lines
[9] = NPC library, mean AUC of VN-MCC cell lines
[10] = NPC library, mean AUC of VP-MCC cell lines
[11] = NPC library, mean AUC of control cell lines
[12] = NPC library, qHTS dose-response AUC, MCC26
[13] = NPC library, qHTS dose-response AUC, NIH3T3 control
[14] = NPC library, qHTS dose-response AUC, HEK293T control
[15] = NPC library, qHTS dose-response AUC, CRL7250 control
[16] = NPC library, qHTS dose-response AUC, HACAT control
[17] = NPC library, qHTS dose-response AUC, MKL1
[18] = NPC library, qHTS dose-response AUC, MKL2
[19] = NPC library, therapeutic window: Control avg AUC minus VN-MCC avg AUC
[20] = NPC library, qHTS dose-response AUC, MCC13
[21] = NPC library, qHTS dose-response AUC, UISO
[22] = NPC library, therapeutic window: Control avg AUC minus VP-MCC avg AUC
[23] = NPC library, therapeutic window: Control avg AUC minus MCC avg AUC
[24] = NPC library, qHTS dose-response AUC, WAGA

SMILES | MCC_Avg_AUC [1, 8] | VN-MCC_Avg_AUC [2, 9] | VP-MCC_Avg_AUC [3, 10] | Control_Avg_AUC [5, 11] | MCC26_AUC (MCC26 cells (VN-MCC); [12]) | NIH3T3_AUC (NIH-3T3 cells; [13]) | HEK293T_AUC (HEK293T cells; [14]) | CRL7250_AUC (CRL-7250 cells; [15]) | HACAT_AUC (HACAT cells; [16]) | MKL1_AUC (MKL-1 cells (VP-MCC); [17]) | MKL2_AUC (MKL-2 cells (VP-MCC); [18]) | Control-VN-MCC [2, 19] | MCC13_AUC (MCC13 cells (VN-MCC); [20]) | UISO_AUC (UISO cells (VN-MCC); [21]) | Control-VP-MCC [3, 22] | Control-MCC [4, 23] | WAGA_AUC (WAGA cells (VP-MCC); [24]) | also measured
Oc1ccc(C2CNCCc3c2cc(O)c(O)c3Cl)cc1 (centres unmarked) [Fenoldopam] | 444.271 | 440.711 | 447.83 | 491.543 | – | – | – | – | – | – | – | – | – | – | – | – | – | MCC26_AUC (MCC26 cells (VN-MCC); [6]): 437.226; NIH3T3_AUC (NIH-3T3 cells; [7]): 489.56; HEK293T_AUC (HEK293T cells; [7]): 492.113; CRL7250_AUC (CRL-7250 cells; [7]): 492.55; HACAT_AUC (HACAT cells; [7]): 491.95; MKL1_AUC (MKL-1 cells (VP-MCC); [6]): 451.807; MKL2_AUC (MKL-2 cells (VP-MCC); [6]): 452.751; Control-VN-MCC ([2]; NPC library, Control AUC minus VN-MCC AUC (therapeutic window)): 50.8323; MCC13_AUC (MCC13 cells (VN-MCC); [6]): 446.053; UISO_AUC (UISO cells (VN-MCC); [6]): 438.854; Control-VP-MCC ([3]; NPC library, Control AUC minus VP-MCC AUC (therapeutic window)): 43.713; Control-MCC ([4]; NPC library, Control AUC minus MCC AUC (therapeutic window)): 47.2727; WAGA_AUC (WAGA cells (VP-MCC); [6]): 438.933
OCCN1CCN(CCCN2c3ccccc3Sc3ccc(C(F)(F)F)cc32)CC1 [Fluphenazine] | 427.186 | 431.018 | 423.354 | 473.361 | 425.402 | 476.772 | 438.571 | 486.675 | 491.426 | 435.034 | 399.652 | 42.343 | 444.309 | 423.342 | 50.0066 | 46.1748 | 435.377 | –
Cl.Cl.Fc1ccc(C(OCCN2CCN(CCCc3ccccc3)CC2)c2ccc(F)cc2)cc1 [GBR 12909 dihydrochloride] | 400.618 | 408.55 | 392.686 | 444.409 | 404.643 | 436.091 | 425.616 | 454.771 | 461.158 | 403.123 | 375.344 | 35.8586 | 436.239 | 384.769 | 51.7231 | 43.7909 | 399.59 | –
CNC(=O)[C@H](CC1=CN=C2C=CCC=C12)NC(=O)[C@@H](CC(=O)NO)CC(C)C [GM-6001] | – | – | – | – | – | – | – | – | – | – | – | – | – | – | – | – | – | MCC26_AUC (MCC26 cells (VN-MCC)): 475.207; NIH3T3_AUC (NIH-3T3 cells): 471.496; HEK293T_AUC (HEK293T cells): 473.463; MCC_Avg_AUC [1]: 388.271; CRL7250_AUC (CRL-7250 cells): 472.869; HACAT_AUC (HACAT cells): 458.777; MKL1_AUC (MKL-1 cells (VP-MCC)): 284.283; MKL2_AUC (MKL-2 cells (VP-MCC)): 291.464; Control-VN-MCC [2]: -9.139; VN-MCC_Avg_AUC [2]: 478.29; MCC13_AUC (MCC13 cells (VN-MCC)): 475.165; UISO_AUC (UISO cells (VN-MCC)): 484.498; Control-VP-MCC [3]: 170.899; VP-MCC_Avg_AUC [3]: 298.252; Control-MCC [4]: 80.8804; Control_Avg_AUC [5]: 469.151; WAGA_AUC (WAGA cells (VP-MCC)): 319.008
